Experiments:
[1] = Solubility of docetaxel in distilled water with PVP and HPBCD (Experimental Example 1); format: physicochemical
Description: The solubility of docetaxel was measured by performing liquid chromatography with UV detector (230 nm).
The solubility of docetaxel in distilled water proportionally increases between 10% and 30% of weight ratio (w/v %) of hydroxypropyl β-cyclodextrin (HPBCD).
Further, the ratio of HPBCD relative to docetaxel was at least 1:11 and the concentration of HPBCD will be lowered if the concentration unit (w/v) is converted into (mg/mL) unit. Therefore, docetaxel may be solubilized even when the ratio of docetaxel:HPBCD becomes smaller than 1:11. Therefore, according to the present invention, it is preferable to use more than 1 part by weight of hydroxypropyl β-cyclodextrin (HPBCD), and more preferably 5 parts by weight relative to 1 part by weight of the taxoid.

[2] = no additive; cited from earlier work

SMILES: CC(=O)O[C@@]12CO[C@@H]1C[C@H](O)[C@@]1(C)C(=O)[C@H](O)C3=C(C)[C@@H](OC(=O)[C@H](O)[C@@H](NC(=O)OC(C)(C)C)c4ccccc4)C[C@@](O)([C@@H](OC(=O)c4ccccc4)[C@H]21)C3(C)C [docetaxel]
- better solubility with HPBCD versus distilled water ([1]; 31.1 mg/mL versus 0.000025 mg/mL): 1.2 million
- solubility of docetaxel added with HPBCD in distilled water ([1]; with hydroxypropyl β-cyclodextrin (HPBCD)): 31.1 mg/mL
- commonly known solubility of docetaxel in distilled water [2]: 0.025 µg/mL

From patent publication US20100305202A1, “LYOPHILIZED PHARMACEUTICAL COMPOSITION WITH IMPROVED STABILITY CONTAINING TAXANE DERIVATIVES, AND METHOD OF MANUFACTURING THE SAME” (priority 2007, published 2010)
